# Read-outs that look alike come from different tables or passages of the source.
# Legend:
# 5-HT transporter = molecular target: T1, 5-HT transporter (Rattus norvegicus, UniProt P31652); assay: Inhibition of 5-HT uptake in rat brain synaptosomes; format: biochemical; settings: read-out: Uptake 5-HT, % inhibition, rat, 1 μM
# T1 construct: synaptosomes of rat brain areas are freshly isolated; from tissue; host or cells: rat brain synaptosomes (P2 fraction) from marrow and pons
# [1] = tested on: batrachotoxin (BTX) binding site of the sodium channel; assay: Affinity to the batrachotoxin (BTX) binding site of the sodium channel; settings: rat cerebrocortex synaptosomes, test concentration not given
# T1 sequence (P31652 whole entry): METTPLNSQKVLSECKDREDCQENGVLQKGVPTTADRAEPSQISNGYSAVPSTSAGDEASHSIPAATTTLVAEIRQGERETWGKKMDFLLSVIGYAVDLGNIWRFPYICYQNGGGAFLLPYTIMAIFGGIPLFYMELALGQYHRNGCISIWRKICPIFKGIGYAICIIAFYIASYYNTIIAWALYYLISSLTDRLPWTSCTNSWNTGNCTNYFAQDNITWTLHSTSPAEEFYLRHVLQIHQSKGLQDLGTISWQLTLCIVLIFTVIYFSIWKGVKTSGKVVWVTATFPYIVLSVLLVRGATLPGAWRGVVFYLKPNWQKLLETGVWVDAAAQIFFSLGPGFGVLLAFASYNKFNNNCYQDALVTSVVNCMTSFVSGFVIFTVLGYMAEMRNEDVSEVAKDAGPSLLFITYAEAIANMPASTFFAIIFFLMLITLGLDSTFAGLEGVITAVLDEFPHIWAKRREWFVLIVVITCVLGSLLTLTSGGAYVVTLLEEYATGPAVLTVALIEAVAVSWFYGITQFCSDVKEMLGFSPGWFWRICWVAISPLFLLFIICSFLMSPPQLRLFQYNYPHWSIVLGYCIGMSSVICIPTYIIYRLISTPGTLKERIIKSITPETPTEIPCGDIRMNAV
Structure (SMILES),inhibition at 1 µM (5-HT transporter; Table III) [%],BTX inhibition ([1]; Table III),inhibition at 1 µM (5-HT transporter; Table II) [%],BTX inhibition ([1]; Table II)
"CSCCC1NC2(CCN(C(=O)c3c(Cl)ccc(C)c3F)CC2)N(Cc2ccccc2)C1=O (stereo not drawn) [Example 240, 1-Benzyl-8-(6-chloro-2-fluoro-3-methylbenzoyl)-3-(2-methylsulfanylethyl)-1,4,8-triazaspiro[4,5]decan-2-one]",54,30,,
"Cc1cc(C)cc(CN2C(=O)C(CC(C)C)NC23CCN(C(=O)CN(C)C)CC3)c1 (stereo not drawn) [Example 309, 8-(2-Dimethylaminoacetyl)-1-(3,5-dimethylbenzyl)-3-isobutyl-1,4,8-triazaspiro[4,5]decan-2-one]",43,82,,
"COc1ccc(C(=O)N2CCC3(CC2)NCC(=O)N3Cc2ccccc2F)cc1 [Example 285, 1-(2-Fluorobenzyl)-8-(4-methoxybenzoyl)-1,4,8-triazaspiro[4,5]decan-2-one]",65,32,,
"CSCCC1NC2(CCN(C(=O)c3cccc(OC(F)(F)F)c3)CC2)N(Cc2cccc(C#N)c2)C1=O (stereo not drawn) [Example 200, 3-[3-(2-Methylsulfanylethyl)-2-oxo-8-(3-trifluoromethoxybenzoyl)-1,4,8-triazaspiro[4,5]dec-1-ylmethyl]benzonitrile]",45,44,,
"CN1C(=O)C(Cc2ccccc2)NC12CCN(C(=O)C=Cc1ccccc1Cl)CC2 (stereo not drawn) [Example 203, 3-Benzyl-8-[3-(2-chlorophenyl)acryloyl]-1-methyl-1,4,8-triazaspiro[4,5]decan-2-one]",34,48,,
"O=C(c1sccc1Cl)N1CCC2(CC1)NC(Cc1ccccc1)C(=O)N2Cc1ccccc1 (stereo not drawn) [Example 172, 1,3-Dibenzyl-8-(3-chlorothiophene-2-carbonyl)-1,4,8-triazaspiro[4,5]decan-2-one]",76,49,,
"CCCCC(=O)N1CCC2(CC1)NC(Cc1ccccc1)C(=O)N2CC(=O)OCC (stereo not drawn) [Example 299, Ethyl (3-benzyl-2-oxo-8-pentanoyl-1,4,8-triazaspiro[4,5]dec-1-yl)acetate]",66,36,,
"CCCCN1C(=O)C(Cc2ccccc2)NC12CCN(C(=O)C1CCCCC1)CC2 (stereo not drawn) [Example 180, 3-Benzyl-1-butyl-8-cyclohexanecarbonyl-1,4,8-triazaspiro[4,5]decan-2-one]",63,42,,
"O=C(c1ccc(-c2ccccc2)cc1)N1CCC2(CC1)NCC(=O)N2Cc1ccccc1F [Example 262, 8-(Biphenyl-4-carbonyl)-1-(2-fluorobenzyl)-1,4,8-triazaspiro[4,5]decan-2-one]",60,70,,
"CCCc1ccc(C(=O)N2CCC3(CC2)NC(CC(C)C)C(=O)N3Cc2c(Cl)cccc2Cl)cc1 (stereo not drawn) [Example 317, 1-(2,6-Dichlorobenzyl)-3-isobutyl-8-(4-propylbenzoyl)-1,4,8-triazaspiro[4,5]decan-2-one]",33,62,,
"CC(C)C1NC2(CCN(C(=O)C=Cc3ccccc3Cl)CC2)N(CCOc2ccccc2)C1=O (stereo not drawn) [Example 225, 8-[3-(2-Chlorophenyl)acryloyl]-3-isopropyl-1-(2-phenoxyethyl)-1,4,8-triazaspiro[4,5]decan-2-one]",32,55,,
"Cc1nnsc1C(=O)N1CCC2(CC1)NC(Cc1ccccc1)C(=O)N2Cc1ccccc1 (stereo not drawn) [Example 177, 1,3-Dibenzyl-8-(4-methyl[1,2,3]thiadiazole-5-carbonyl)-1,4,8-triazaspiro[4,5]decan-2-one]",79,30,,
"O=C(C=Cc1ccccc1)N1CCC2(CC1)NC(Cc1ccccc1)C(=O)N2Cc1ccccc1 (stereo not drawn) [Example 223, 1,3-Dibenzyl-8-(3-phenylacryloyl)-1,4,8-triazaspiro[4,5]decan-2-one]",49,62,,
"Cl.O=C(c1ccc2ccccc2c1)N1CCC2(CC1)N[C@@H](Cc1ccccc1)C(=O)N2Cc1ccccc1 [Example 59, 1,3-(S)-dibenzyl-8-(naphthalin-2-carbonyl)-1,4,8-triazaspiro[4,5]decan-2-one hydrochloride]",,,53,49
"C=CCN1C(=O)C(C(C)C)NC12CCN(C(=O)Cc1cccc(OC)c1)CC2 (stereo not drawn) [Example 296, 1-Allyl-3-isopropyl-8-[2-(3-methoxyphenyl)acetyl]-1,4,8-triazaspiro[4,5]decan-2-one]",30,36,,
"CC(C)C1NC2(CCN(C(=O)c3ccccc3C(=O)OCc3ccccc3)CC2)N(Cc2ccccc2)C1=O (stereo not drawn) [Example 236, Benzyl 2-(1-benzyl-3-isopropyl-2-oxo-1,4,8-triazaspiro[4,5]decan-8-carbonyl)benzoate]",48,50,,
"CSCCC1NC2(CCN(C(=O)CCC3CCCC3)CC2)N(Cc2ccccc2)C1=O (stereo not drawn) [Example 221, 1-Benzyl-8-(3-cyclopentylpropionyl)-3-(2-methylsulfanylethyl)-1,4,8-triazaspiro[4,5]decan-2-one]",79,36,,

Structure (SMILES),inhibition at 1 µM (5-HT transporter; Table III) [%],BTX inhibition ([1]; Table III),inhibition at 1 µM (5-HT transporter; Table II) [%],BTX inhibition ([1]; Table II)
"Cc1onc(-c2c(F)cccc2Cl)c1C(=O)N1CCC2(CC1)NC(=O)C(C(C)C)N2 (stereo not drawn) [Example 149, 8-[3-(2-Chloro-6-fluorophenyl)-5-methylisoxazole-4-carbonyl]-3-isopropyl-1,4,8-triazaspiro[4,5]decan-2-one]",33,33,,
"CCCCN1C(=O)C(Cc2ccccc2)NC12CCN(C(=O)CCC1CCCC1)CC2 (stereo not drawn) [Example 188, 3-Benzyl-1-butyl-8-(3-cyclopentylpropionyl)-1,4,8-triazaspiro[4,5]decan-2-one]",70,69,,
"Cl.O=C(c1cccc(F)c1F)N1CCC2(CC1)N[C@@H](Cc1ccccc1)C(=O)N2Cc1ccccc1 [Example 54, 1,3-(S)-dibenzyl-8-(2,3-difluorobenzoyl)-1,4,8-triazaspiro[4,5]decan-2-one hydrochloride]",,,81,37
"COc1ccc(OC)c(CC(=O)N2CCC3(CC2)NC(CCSC)C(=O)N3Cc2ccccc2F)c1 (stereo not drawn) [Example 195, 8-[2-(2,5-Dimethoxyphenyl)acetyl]-1-(2-fluorobenzyl)-3-(2-methylsulfanylethyl)-1,4,8-triazaspiro[4,5]decan-2-one]",50,34,,
"Cl.O=C1[C@H](Cc2ccccc2)NC2(CCNCC2)N1Cc1ccccc1 [Example 38, 1,3-(S)-Dibenzyl-1,4,8-triazaspiro[4,5]decan-2-one hydrochloride]",,,94,87
"COC(=O)c1ccc(CN2C(=O)CNC23CCN(C(=O)c2cc(C(C)(C)C)oc2C)CC3)cc1 [Example 292, Methyl 4-[8-(5-tert-butyl-2-methylfuran-3-carbonyl)-2-oxo-1,4,8-triazaspiro[4,5]dec-1-ylmethyl]benzoate]",40,40,,
"C=CCN1C(=O)C(CCSC)NC12CCN(C(=O)c1cc(C(C)(C)C)nn1C)CC2 (stereo not drawn) [Example 330, 1-Allyl-8-(5-tert-butyl-2-methyl-2H-pyrazole-3-carbonyl)-3-(2-methylsulfanylethyl)-1,4,8-triazaspiro[4,5]decan-2-one]",45,31,,
"CCCc1c(C(=O)N2CCC3(CC2)NC(Cc2ccccc2)C(=O)N3CC(=O)OCC)cnn1-c1ccccc1 (stereo not drawn) [Example 306, Ethyl [3-benzyl-2-oxo-8-(1-phenyl-5-propyl-1H-pyrazole-4-carbonyl)-1,4,8-triazaspiro[4,5]dec-1-yl]acetate]",85,68,,
"CCOC(=O)CN1C(=O)C(Cc2ccccc2)NC12CCN(C(=O)COCc1ccccc1)CC2 (stereo not drawn) [Example 329, Ethyl [3-benzyl-8-(2-benzyloxyacetyl)-2-oxo-1,4,8-triazaspiro[4,5]dec-1-yl]acetate]",55,43,,
"CC(C)CC1NC2(CCN(C(=O)c3ccc4nonc4c3)CC2)N(Cc2c(Cl)cccc2Cl)C1=O (stereo not drawn) [Example 275, 8-(Benzo[1,2,5]oxadiazole-5-carbonyl)-1-(2,6-dichlorobenzyl)-3-isobutyl-1,4,8-triazaspiro[4,5]decan-2-one]",33,61,,
"O=C(CCCOc1ccccc1)N1CCC2(CC1)NC(Cc1ccccc1)C(=O)N2Cc1ccccc1 (stereo not drawn) [Example 209, 1,3-Dibenzyl-8-(4-phenoxybutyryl)-1,4,8-triazaspiro[4,5]decan-2-one]",69,67,,
"CCOC(=O)CN1C(=O)C(CC(C)C)NC12CCN(C(=O)CC(C)C)CC2 (stereo not drawn) [Example 288, Ethyl [3-isobutyl-8-(3-methylbutyryl)-2-oxo-1,4,8-triazaspiro[4,5]dec-1-yl]acetate]",45,32,,
"CCCC(C)C(=O)N1CCC2(CC1)NC(CC(C)C)C(=O)N2CC(=O)OCC (stereo not drawn) [Example 291, Ethyl [3-isobutyl-8-(2-methylpentanoyl)-2-oxo-1,4,8-triazaspiro[4,5]dec-1-yl]acetate]",38,33,,
"Cc1ccc(C(=O)N2CCC3(CC2)NC(CC(C)C)C(=O)N3Cc2c(Cl)cccc2Cl)c(F)c1F (stereo not drawn) [Example 324, 1-(2,6-Dichlorobenzyl)-8-(2,3-difluoro-4-methylbenzoyl)-3-isobutyl-1,4,8-triazaspiro[4,5]decan-2-one]",31,62,,
"COC(=O)c1ccc(CN2C(=O)C(C(C)C)NC23CCN(C(=O)c2ccc(C(F)(F)F)c(F)c2)CC3)cc1 (stereo not drawn) [Example 204, Methyl 4-[8-(3-fluoro-4-trifluoromethylbenzoyl)-3-isopropyl-2-oxo-1,4,8-triazaspiro[4,5]dec-1-ylmethyl]benzoate]",42,44,,
"CCCCCC(=O)N1CCC2(CC1)NC(C(C)C)C(=O)N2CCCC (stereo not drawn) [Example 129, 1-Butyl-8-hexanoyl-3-isopropyl-1,4,8-triazaspiro[4,5]decan-2-one]",47,30,,

# Reference: patent US7951815B2, “Substituted 1,4,8-triazaspiro [4,5]decan-2-one compounds” (Gruenenthal GmbH, priority 2004, dated 2011)
